Activity calls are given as the source filed them. The calls are words filed in the database; no cut-off is given here.
Tests used:
3T3-L1 [1] = assay: Cytotoxicity against mouse 3T3L1 cells at 50 uM after 48 hrs by sulforhodamine B assay; assay type: cell-based; conditions: 3t3-l1, 48 h
3T3-L1 [2] = assay: Cytotoxicity against mouse 3T3L1 cells at 50 uM after 24 hrs by sulforhodamine B assay; assay type: cell-based; conditions: 3t3-l1, 24 h
Danio rerio [3] = species: Danio rerio; assay: Toxicity in zebra fish larvae at 5 uM after 48 hrs; assay type: organism-based; conditions: zebrafish, in vivo
Danio rerio [4] = species: Danio rerio; assay: Lipid lowering activity in zebrafish embryos at 5 uM by Nile red fat metabolism assay; assay type: functional, organism-based

Compound | Activity (3T3-L1 [1]) | Activity (3T3-L1 [2]) | Activity (Danio rerio [3]) | Activity (Danio rerio [4])
O=C(O)Cc1cccc2oc3ccccc3c(=O)c12 | 26 to 50% | 0 to 25% | 0 to 25% | 
O=C(O)Cc1ccc2c(=O)c3ccccc3oc2c1 | 0 to 25% | 0 to 25% | 0 to 25% | Active
O=c1c2cc(O)c(O)cc2oc2cc(O)c([C@@H]3O[C@H](CO)[C@@H](O)[C@H](O)[C@H]3O)c(O)c12 [MANGIFERIN] | 0 to 25% | 0 to 25% | 0 to 25% | 
COc1cc2oc3c(OC)c4c(cc3c(=O)c2cc1OC)OC(C)(C)CC4 | 0 to 25% | 0 to 25% | 0 to 25% | 
COc1ccc(Oc2ccccc2C(=O)O)cc1OC | 0 to 25% | 0 to 25% | 0 to 25% | 
COc1cccc2c(=O)c3cc4c(c(O)c3oc12)OC(C)(C)CC4 | 51 to 75% | 51 to 75% | 0 to 25% | 
COc1cc([C@H]2Oc3ccc4c(=O)c5ccccc5oc4c3O[C@@H]2CO)ccc1O | 0 to 25% | 0 to 25% | 0 to 25% | 
CCCOc1ccc(NNC(=O)c2ccncc2)c2c(=O)c3ccccc3sc12 | 51 to 75% | 0 to 25% | 51 to 75% | 
COc1ccc2c(=O)c3cc(C(=O)N[C@H](CO)c4ccccc4)ccc3oc2c1 | 26 to 50% | 51 to 75% | 0 to 25% | 
CCCOc1ccc(OC)c2c(=O)c3ccccc3sc12 | 51 to 75% | 0 to 25% | 0 to 25% | Active
O=c1c2ccccc2oc2cccc(OCCCCCCOc3cccc4oc5ccccc5c(=O)c34)c12 | 51 to 75% | 0 to 25% | 0 to 25% | 
COc1c(O)cc2oc3cc(O)c(CC=C(C)C)c(O)c3c(=O)c2c1CC=C(C)C [MANGOSTIN] | 76 to 100% | 76 to 100% | 76 to 100% | 
C=CCOc1ccc(/C=C/C(=O)/C=C/c2ccc(OCC=C)c(OC)c2)cc1OC | 0 to 25% | 0 to 25% | 0 to 25% | Active
O=C(COc1ccc2c(=O)c3ccccc3oc2c1)N[C@@H](c1ccccc1)[C@H](O)c1ccccc1 | 0 to 25% | 76 to 100% | 0 to 25% | 
COc1cc(/C=C/C(=O)/C=C/c2ccc(OCc3cn(CCO[C@H]4O[C@@H](COC(C)=O)[C@H](OC(C)=O)[C@@H](OC(C)=O)[C@@H]4NC(C)=O)nn3)c(OC)c2)ccc1OCc1cn(CCO[C@@H]2O[C@H](COC(C)=O)[C@@H](OC(C)=O)[C@H](OC(C)=O)[C@@H]2NC(C)=O)nn1 | 0 to 25% | 0 to 25% | 0 to 25% | 
O=C(O)Cc1ccc2oc3ccccc3c(=O)c2c1 | 0 to 25% | 0 to 25% | 0 to 25% | 
COc1c(O)ccc2c(=O)c3ccccc3oc12 | 0 to 25% | 0 to 25% | 0 to 25% | 
COc1c2c(cc3c(=O)c4ccccc4oc13)OC(C)(C)C=C2 | 51 to 75% | 26 to 50% | 0 to 25% | Active
O=c1c2ccccc2oc2ccccc12 [XANTHONE] | 0 to 25% | 0 to 25% | 0 to 25% | 
C#CCOc1ccc2c(=O)c3ccc(OCC#C)cc3oc2c1 | 0 to 25% | 0 to 25% | 0 to 25% | 
O=c1c2ccccc2sc2c(O)ccc(Cl)c12 | 51 to 75% | 0 to 25% | 0 to 25% | Active
COc1c2c(cc3c(=O)c4ccc(O)cc4oc13)CCC(C)(C)O2 | 0 to 25% | 0 to 25% | 0 to 25% | 
CC(=O)Oc1ccc(C(=O)c2ccc(OC(C)=O)c(OC(C)=O)c2)cc1OC(C)=O | 51 to 75% | 26 to 50% | 0 to 25% | 
O=c1c2ccc(O)cc2oc2cc(O)ccc12 | 0 to 25% | 0 to 25% | 0 to 25% | 
COc1cc(C=O)c2c(=O)c3ccccc3oc2c1O | 51 to 75% | 0 to 25% | 0 to 25% | Active

Compound | Activity (3T3-L1 [1]) | Activity (3T3-L1 [2]) | Activity (Danio rerio [3]) | Activity (Danio rerio [4])
COc1ccc2c(=O)c3cc(C(=O)N[C@@H](CO)c4ccccc4)ccc3oc2c1 | 0 to 25% | 0 to 25% | 0 to 25% | Active
Cc1c(O)cc2oc3ccccc3c(=O)c2c1O | 0 to 25% | 26 to 50% | 0 to 25% | 
COc1cc(C(Br)Br)c2c(=O)c3ccccc3oc2c1OC | 51 to 75% | 26 to 50% | 0 to 25% | Active
COc1ccccc1C(=O)c1ccc(OC)c(OC)c1O | 51 to 75% | 0 to 25% | 0 to 25% | 
O=c1c2ccccc2oc2c(O)c(O)ccc12 [3,4-DIHYDROXYXANTHONE] | 51 to 75% | 26 to 50% | 0 to 25% | Active
O=c1c2ccccc2oc2c(O)cccc12 | 0 to 25% | 0 to 25% | 0 to 25% | 
O=c1c2ccccc2oc2cccc(OCCCCCBr)c12 | 26 to 50% | 0 to 25% | 0 to 25% | Active
CC(C)=CCOc1ccc2oc3ccccc3c(=O)c2c1OCC=C(C)C | 51 to 75% | 26 to 50% | 0 to 25% | 
COc1cc2c(c3oc4ccccc4c(=O)c13)OC(C)(C)C=C2 | 51 to 75% | 51 to 75% | 76 to 100% | Active
COc1cccc2c(=O)c3ccccc3oc12 | 0 to 25% | 26 to 50% | 0 to 25% | Active
CC(C)[C@H](CO)NC(=O)COc1ccc2c(=O)c3ccccc3oc2c1 | 0 to 25% | 0 to 25% | 0 to 25% | 
COC(=O)c1ccccc1Oc1ccc(OC)c(OC)c1 | 51 to 75% | 0 to 25% | 0 to 25% | 
COc1ccc2oc3ccccc3c(=O)c2c1 | 0 to 25% | 51 to 75% | 0 to 25% | Active
CCCOc1ccc(NCCN(CC)CC)c2c(=O)c3ccccc3sc12 | 51 to 100% | 0 to 100% | 76 to 100% | 
O=c1c2ccccc2oc2cc(O)ccc12 | 0 to 25% | 0 to 25% | 0 to 25% | 
O=Cc1cc(O)c(O)c2oc3ccccc3c(=O)c12 | 51 to 75% | 0 to 25% | 0 to 25% | 
CCCOc1ccc(NCCN(CC)CC)c2c(=O)c3ccccc3sc12.Cl | 76 to 100% | 76 to 100% | 76 to 100% | 
CCN(CC)c1ccc2c(=O)c3cc4c(c(OC)c3oc2c1)CCC(C)(C)O4 | 51 to 75% | 51 to 75% | 76 to 100% | Active
COc1cc(CO)c2c(=O)c3ccccc3oc2c1OC | 26 to 50% | 0 to 25% | 0 to 25% | Active
CCCOc1ccc(N2CCCCC2)c2c(=O)c3ccccc3sc12 | 51 to 75% | 26 to 50% | 76 to 100% | 
O=Cc1c(O)ccc2c(=O)c3ccc(O)c(C=O)c3oc12 | 51 to 75% | 26 to 50% | 0 to 25% | 
C=Cc1cc2c(=O)c3ccccc3oc2c(OC)c1O | 51 to 75% | 0 to 25% | 0 to 25% | Active
COc1cc(/C=C/C(=O)/C=C/c2ccc(O)c(OC)c2)ccc1O | 0 to 25% | 0 to 25% | 0 to 25% | Active
CC(C)[C@@H](CO)NC(=O)COc1ccc2c(=O)c3ccccc3oc2c1 | 0 to 25% | 0 to 25% | 0 to 25% | 
O=c1c2ccc(O[C@H]3O[C@H](CO)[C@@H](O)[C@@H](O)[C@@H]3O)cc2oc2cc(O[C@@H]3O[C@@H](CO)[C@H](O)C(O)[C@H]3O)ccc12 (some centres not stated) | 26 to 50% | 0 to 25% | 0 to 25% | 

— ChEMBL document CHEMBL4152195, “Lipid reducing activity and toxicity profiles of a library of polyphenol derivatives” (Eur J Med Chem, 2018)
